Measurements from article PMC11341654 (2024).

Tests used:
[1] = UV irradiation in solution; settings: cited from earlier work
[2] = protonated peptides irradiated in the gas phase; VUV or soft X-ray photon, carbon ions; settings: cited from earlier work
[3] = isolated peptide ions in the gas phase (ion trap), UV photoabsorption at 220 nm; settings: up to 100–500 ms
[4] = deprotonated peptide anions in the gas phase, UV photoabsorption at 220 nm (ion trap); settings: up to 100–500 ms
[5] = gas phase; photoabsorption in the VUV as well as X-ray photon energy range (30 to 545 eV); settings: cited from earlier work

| cleaved bond [4] | Substance | cleaved bond [1] | cleaved bond [2] | cleaved bond [3] | cleaved bond [5] |
| --- | --- | --- | --- | --- | --- |
|  | (POG)10 | Gly-Pro, major | Gly-Pro, major |  |  |
| G-P and P-P and E-P and A-P | PGGPPGPKGNSGEPGAPGSKGDTGAK |  |  | Gly-Pro, major and Pro-Pro and Glu-Pro and Ala-Pro and Asp-Thr and K-G | Gly-Pro, major |
|  | (PPG)10 | Gly-Pro, major | Gly-Pro, major |  |  |
